Assay results: patent publication US20140093935A1, “CHARGED TRIPLET-STATE QUENCHERS FOR MITIGATION OF PHOTO-INDUCED DAMAGE” (Pacific Biosciences of California, Inc., priority 2012, published 2014)

Key:
phi29 polymerase enzyme = assay: Sequencing-by-synthesis assay, polymerase survival as a function of number of bases sequenced; type: biochemical
From the text: In various embodiments, the amount of photo-induced damage that occurs in a reaction mixture of the invention is detectably less than the amount of photo-induced damage that occurs in the absence of a photoprotective additive according to Formula I or Formula II. Photo-induced damage can be measured in different ways, depending on the particular analytical reaction. One way is by monitoring blinkiness of a fluorescent dye in the reaction, as further explained above. In other embodiments, the amount of photo-induced damage is measured as a length of time a reaction can proceed, e.g., the survival time for an enzyme catalyzing a reaction. For example, in a nucleic acid sequencing-by-synthesis reaction, a proxy for the level of photo-induced damage can be the length of the nascent strand synthesized and/or the length of the sequencing read generated. […]
Experiments were conducted using a single-molecule, real-time (SMRT®) sequencing instrument. […] Sequencing was initiated and reactions were monitored in real time. The fluorescence emissions were recorded, processed, and analyzed.
Further analysis of the fluorescent emissions included measurement of polymerase enzyme survival in the reaction as a function of number of bases sequenced. Another measure of photo-induced damage was the average read length produced in the sequencing reaction.

fluorophore blinking = assay: Sequencing-by-synthesis assay, interpulse duration / very short dark periods (blinkiness); type: biochemical; conditions: 3 μM and 5 μM of compound compared with 1 mM of the charged nitrophenyl photoprotective moiety; FIG. 7
Experimental: One measure of photoprotective benefit is monitoring “blinkiness” of dyes in a reaction mixture. For example, in a reaction in which dye-labeled reactants are being observed as they cyclically interact with an unlabeled reactant, the time between interaction events is a length of time during which no dye is present, or a “dark” period. Given certain reaction parameters, e.g., diffusion rates and concentration of the labeled reactant, a distribution of dark periods is measured that centers around a value that is an average time between interaction events. This distribution curve can be perturbed by dye blinking since such blinking introduces a very brief dark period during an interaction event. These blinking-induced dark periods introduce an aberrant peak in the dark period distribution resulting in a peak that is outside of the normal distribution and representing dark periods that are too short to be explained by the reaction parameters. Blinkiness is increased when a dye is excited to the triplet state and there is insufficient photo-induced damage mitigation to quickly return it to a non-triplet state. […]
Experiments were conducted using a single-molecule, real-time (SMRT®) sequencing instrument. […] Sequencing was initiated and reactions were monitored in real time. The fluorescence emissions were recorded, processed, and analyzed. […]

## O=C(CNc1cccc([N+](=O)[O-])c1)NCCCCCCOP(=O)(O)OP(=O)(O)OP(=O)(O)OP(=O)(O)OP(=O)(O)O [TSQ001-6C-5P]
phi29 polymerase enzyme; 1.5, 3, and 5 μM of compound compared with 1 mM of the charged nitrophenyl photoprotective moiety, FIG. 8
  increasing survival of a polymerase enzyme: more effective
phi29 polymerase enzyme; as compared to the photoprotective moiety alone, by various measures (data not shown)
  polymerase survival in a sequencing-by-synthesis reaction is increased: 15-25%
Fluorophore blinking
  reducing the incidence of very short dark periods (proxy for blinkiness): as effective
